Assay results published in publication PMC12555108, “In‐vitro Assessment of BCRP‐Mediated Efflux of Antiseizure Medications in Human Blood‐Brain Barrier Cell Model” (Journal of Biochemical and Molecular Toxicology, 2025).

Experiments:
BCRP [1] = target: T1, BCRP (Homo sapiens, UniProt Q9UNQ0); assay: bidirectional transport assay across hCMEC/D3 cell monolayer with or without Ko143; conditions: for transport by BCRP (conclusion of bidirectional transport assay): ER ≥ 1.5 and significantly reduced by Ko143; for Papp A→B at 2 h, 40 μM / Papp A→B at 2 h, 80 μM / Papp B→A at 2 h, 40 μM / Papp B→A at 2 h, 80 μM / efflux ratio at 2 h, 40 μM / efflux ratio at 2 h, 80 μM / Papp A→B at 2 h, 300 µM / Papp A→B at 2 h, 600 μM / Papp B→A at 2 h, 300 µM / Papp B→A at 2 h, 600 μM / efflux ratio at 2 h / efflux ratio at 2 h, 300 µM / efflux ratio at 2 h, 600 μM: human
T1 sequence (Q9UNQ0 1-655): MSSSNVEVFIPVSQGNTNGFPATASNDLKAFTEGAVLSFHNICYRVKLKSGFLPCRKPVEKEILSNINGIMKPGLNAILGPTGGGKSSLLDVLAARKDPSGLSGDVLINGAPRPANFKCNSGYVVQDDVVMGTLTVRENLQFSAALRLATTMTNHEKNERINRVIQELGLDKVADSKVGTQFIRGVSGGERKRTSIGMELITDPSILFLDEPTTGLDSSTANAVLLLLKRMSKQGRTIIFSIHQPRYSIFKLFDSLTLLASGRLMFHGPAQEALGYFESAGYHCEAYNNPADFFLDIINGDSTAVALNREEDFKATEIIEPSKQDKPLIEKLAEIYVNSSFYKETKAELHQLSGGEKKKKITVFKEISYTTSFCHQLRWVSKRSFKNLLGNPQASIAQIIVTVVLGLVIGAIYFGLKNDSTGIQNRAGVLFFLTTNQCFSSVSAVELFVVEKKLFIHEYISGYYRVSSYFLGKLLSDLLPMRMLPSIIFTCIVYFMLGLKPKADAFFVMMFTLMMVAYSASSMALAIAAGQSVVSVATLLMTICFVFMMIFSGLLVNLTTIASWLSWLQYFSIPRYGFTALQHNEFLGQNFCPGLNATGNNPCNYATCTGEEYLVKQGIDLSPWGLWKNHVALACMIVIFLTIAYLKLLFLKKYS
Protocol: For transport assays, hCMEC/D3 cells were seeded on collagen type I‐coated Transwell inserts (polycarbonate 12‐well, pore size […]) (cat. no. CLS3460; Corning, NY, USA) at 80% confluency and cultured as described in section 2.5. In brief, the drug was dissolved in Hanks’ balanced salt solution supplemented with 10 mM HEPES, 1 mM Na‐Pyruvate, pH 7.4 at 37°C (transport buffer). Initially, both sides of the chamber were washed with 1X PBS and the assay was performed with pre‐warmed transport buffer. 0.5 ml or 1.5 ml of the drug solution, with or without BCRP‐specific inhibitor Ko143 (1 μM) was added to either the apical side or basolateral side of the monolayer, respectively, and fresh transport buffer was added to the opposite side. Aliquots of 100 μl samples were taken from the opposite sides every 30 min for 2 h, and the same amount of fresh transport buffer was added to the same chamber after each sampling. […] Concentrations of ASMs were evaluated by HPLC or LC/MS. Apparent permeability (Papp) is defined as the transport rate of ASM and efflux ratio (ER) was calculated as the ratio of Papp in the basolateral‐to‐apical (Papp(B→A)) direction to the Papp in the apical‐to‐basolateral (Papp(A→B)) direction. The samples were stored at −20°C until analysis. […] Fluorescence detection of lucifer yellow (excitation at 430 nm, and emission at 535 nm) was carried out with Infinite 200 PRO NanoQuant (Tecan, Zurich, Switzerland). […] All transport assays were performed in triplicate.
The calculation for apparent permeability coefficient, Papp, was performed as described before. Papp=dQr/dt/A×C0 where dQr/dt is the cumulative amount in the receiver side vs time in μM/s
A is the area of the cell monolayer
C0 is the initial concentration of the dosing solution (μM).
And, Efflux ratio=Papp(B−to−A)/Papp(A−to−B)

BCRP [2] = target: T1, BCRP; conditions: previous data; cited from earlier work
[3] = parameters: method as in Johannessen, 2004; Patsalos, 2008; Lee, 2016; conditions: patients with epilepsy; ref Johannessen, 2004; Patsalos, 2008; Lee, 2016; cited from earlier work
BCRP [4] = target: T1, BCRP; parameters: host or cells: MCF-7 cells overexpressing BCRP; conditions: previous study; cited from earlier work

SMILES: O=C1NC(=O)C(c2ccccc2)(c2ccccc2)N1 [PHT, phenytoin]
- Efflux ratio (ER), hCMEC/D3 without inhibitor Ko143 (BCRP [1]; 80 μM, hCMEC/D3 monolayer): 1.53
- transport by BCRP (conclusion of bidirectional transport assay) (BCRP [1]; hCMEC/D3 monolayer): not
- Papp A→B at 2 h, 40 μM (BCRP [1]; pH 7.4): 2.12 ×10⁻⁶ cm/s
- Papp A→B at 2 h, 80 μM (BCRP [1]; pH 7.4): 3.09 ×10⁻⁶ cm/s
- Papp B→A at 2 h, 40 μM (BCRP [1]; pH 7.4): 2.59 ×10⁻⁶ cm/s
- Papp B→A at 2 h, 80 μM (BCRP [1]; pH 7.4): 3.36 ×10⁻⁶ cm/s
- efflux ratio at 2 h, 40 μM (BCRP [1]; pH 7.4, Efflux ratio (ER), hCMEC/D3 without inhibitor Ko143, 40 μM, hCMEC/D3 monolayer): 1.28
- efflux ratio at 2 h, 80 μM (BCRP [1]; pH 7.4, Efflux ratio (ER), hCMEC/D3 without inhibitor Ko143, 80 μM, hCMEC/D3 monolayer): 1.5
- Papp A→B at 2 h, 40 μM (BCRP [1]; pH 7.4, with Ko143 1 μM): 2.71 ×10⁻⁶ cm/s
- Papp A→B at 2 h, 80 μM (BCRP [1]; pH 7.4, with Ko143 1 μM): 2.03 ×10⁻⁶ cm/s
- Papp B→A at 2 h, 40 μM (BCRP [1]; pH 7.4, with Ko143 1 μM): 3.07 ×10⁻⁶ cm/s
- Papp B→A at 2 h, 80 μM (BCRP [1]; pH 7.4, with Ko143 1 μM): 2.12 ×10⁻⁶ cm/s
- efflux ratio at 2 h, 40 μM (BCRP [1]; pH 7.4, with Ko143 1 μM, Efflux ratio (ER), hCMEC/D3 with inhibitor Ko143, 40 μM, hCMEC/D3 monolayer, 1 μM Ko143): 1.17
- efflux ratio at 2 h, 80 μM (BCRP [1]; pH 7.4, with Ko143 1 μM, Efflux ratio (ER), hCMEC/D3 with inhibitor Ko143, 80 μM, hCMEC/D3 monolayer, 1 μM Ko143): 1.31
- BPZ accumulation in competitive substrate efflux assay in hCMEC/D3 cells (BCRP [2]): increased BPZ accumulation
- Therapeutic plasma concentration range [3]: 40 to 80 µM
- stimulation of BCRP ATPase activity (BCRP [4]): stimulated

SMILES: CCCC(CCC)C(=O)O [VPA, valproic acid]
- transport by BCRP (conclusion of bidirectional transport assay) (BCRP [1]; hCMEC/D3 monolayer): transports
- Papp A→B at 2 h, 300 µM (BCRP [1]; pH 7.4): 0.19 ×10⁻⁶ cm/s
- Papp A→B at 2 h, 600 μM (BCRP [1]; pH 7.4): 0.34 ×10⁻⁶ cm/s
- Papp B→A at 2 h, 300 µM (BCRP [1]; pH 7.4): 0.31 ×10⁻⁶ cm/s
- Papp B→A at 2 h, 600 μM (BCRP [1]; pH 7.4): 0.64 ×10⁻⁶ cm/s
- efflux ratio at 2 h (BCRP [1]; pH 7.4, Efflux ratio (ER) without inhibitor, at all the tested concentrations, hCMEC/D3 monolayer): > 1.5
- efflux ratio at 2 h, 300 µM (BCRP [1]; pH 7.4, Efflux ratio (ER), hCMEC/D3 without inhibitor Ko143, 300 μM, hCMEC/D3 monolayer): > 1.5
- efflux ratio at 2 h, 600 μM (BCRP [1]; pH 7.4, Efflux ratio (ER), hCMEC/D3 without inhibitor Ko143, 600 μM, hCMEC/D3 monolayer): > 1.5
- Papp A→B at 2 h, 300 µM (BCRP [1]; pH 7.4, with Ko143 1 μM): 0.21 ×10⁻⁶ cm/s
- Papp A→B at 2 h, 600 μM (BCRP [1]; pH 7.4, with Ko143 1 μM): 0.33 ×10⁻⁶ cm/s
- Papp B→A at 2 h, 300 µM (BCRP [1]; pH 7.4, with Ko143 1 μM): 0.24 ×10⁻⁶ cm/s
- Papp B→A at 2 h, 600 μM (BCRP [1]; pH 7.4, with Ko143 1 μM): 0.37 ×10⁻⁶ cm/s
- efflux ratio at 2 h (BCRP [1]; pH 7.4, with Ko143 1 µM, Efflux ratio (ER) in the presence of Ko143, at all the tested concentrations, hCMEC/D3 monolayer, 1 μM Ko143): ~1
- efflux ratio at 2 h, 300 µM (BCRP [1]; pH 7.4, with Ko143 1 µM, Efflux ratio (ER), hCMEC/D3 with inhibitor Ko143, 300 μM, hCMEC/D3 monolayer, 1 μM Ko143): 1.1
- efflux ratio at 2 h, 600 μM (BCRP [1]; pH 7.4, with Ko143 1 μM, Efflux ratio (ER), hCMEC/D3 with inhibitor Ko143, 600 μM, hCMEC/D3 monolayer, 1 μM Ko143): 1.14
- BPZ accumulation in competitive substrate efflux assay in hCMEC/D3 cells (BCRP [2]): increased BPZ accumulation
- Therapeutic plasma concentration range [3]: 300 to 600 µM
- stimulation of BCRP ATPase activity (BCRP [4]): stimulated
